Data: the supplement of paper PMC10307832

What was measured:
Experiment in all cases: relative viability (nuclei count vs DMSO), 5 days (fraction); higher = more cells survive
Gemcitabine + Phenformin = compound: Nc1ccn([C@@H]2O[C@H](CO)[C@@H](O)C2(F)F)c(=O)n1 [Gemcitabine] + N=C(N)NC(=N)NCCc1ccccc1 [Phenformin] (partner 250 µM)
Summary of the method: (§1)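 After 5 days of treatment, lung cancer cells in 1536-well plates were fixed and stained in a single step (final 0.05% Triton X-100, 1% formaldehyde, 1 ug/ml Hoechst) and their nuclei counted on 4× images. Treatment had been applied by pin tool the day after seeding as one drug alone or as a fixed anchor-drug dose with five library-drug doses (not always all listed) in √10 steps. Relative viability is the nuclei count of treated wells divided by that of vehicle wells, and values are medians of duplicate plates.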

Gemcitabine + OSI-027 = compound: Nc1ccn([C@@H]2O[C@H](CO)[C@@H](O)C2(F)F)c(=O)n1 [Gemcitabine] + COc1cccc2cc(-c3nc([C@H]4CC[C@H](C(=O)O)CC4)n4ncnc(N)c34)[nH]c12 [OSI-027] (partner 0.5 µM)
Summary of the method: as §1

Gemcitabine + Trametinib = compound: Nc1ccn([C@@H]2O[C@H](CO)[C@@H](O)C2(F)F)c(=O)n1 [Gemcitabine] + CC(=O)Nc1cccc(-n2c(=O)n(C3CC3)c(=O)c3c(Nc4ccc(I)cc4F)n(C)c(=O)c(C)c32)c1 [Trametinib] (partner 0.02 µM)
Summary of the method: as §1

Gemcitabine + Crizotinib = compound: Nc1ccn([C@@H]2O[C@H](CO)[C@@H](O)C2(F)F)c(=O)n1 [Gemcitabine] + C[C@@H](Oc1cc(-c2cnn(C3CCNCC3)c2)cnc1N)c1c(Cl)ccc(F)c1Cl [Crizotinib] (partner 1 µM)
Summary of the method: as §1

Cell Line | relative viability (Gemcitabine + Phenformin; first compound 0.001 µM) | relative viability (Gemcitabine + Phenformin; first compound 0.003162 µM) | relative viability (Gemcitabine + Phenformin; first compound 0.01 µM) | relative viability (Gemcitabine + Phenformin; first compound 0.03162 µM) | relative viability (Gemcitabine + Phenformin; first compound 0.1 µM) | relative viability (Gemcitabine + OSI-027; first compound 0.001 µM) | relative viability (Gemcitabine + OSI-027; first compound 0.003162 µM) | relative viability (Gemcitabine + OSI-027; first compound 0.01 µM) | relative viability (Gemcitabine + OSI-027; first compound 0.03162 µM) | relative viability (Gemcitabine + OSI-027; first compound 0.1 µM) | relative viability (Gemcitabine + Trametinib; first compound 0.001 µM) | relative viability (Gemcitabine + Trametinib; first compound 0.003162 µM) | relative viability (Gemcitabine + Trametinib; first compound 0.01 µM) | relative viability (Gemcitabine + Trametinib; first compound 0.03162 µM) | relative viability (Gemcitabine + Trametinib; first compound 0.1 µM) | relative viability (Gemcitabine + Crizotinib; first compound 0.001 µM) | relative viability (Gemcitabine + Crizotinib; first compound 0.003162 µM) | relative viability (Gemcitabine + Crizotinib; first compound 0.01 µM) | relative viability (Gemcitabine + Crizotinib; first compound 0.03162 µM) | relative viability (Gemcitabine + Crizotinib; first compound 0.1 µM)
NCI-H322M | 0.635 | 0.378 | 0.288 | 0.334 | 0.268 | 0.348 | 0.376 | 0.258 | 0.256 | 0.278 | 0.47 | 0.327 | 0.394 | 0.382 | 0.385 | 0.85 | 0.357 | 0.269 | 0.219 | 0.212
NCI-H358 | 0.291 | 0.22 | 0.101 | 0.0745 | 0.0748 | 0.523 | 0.114 | 0.0702 | 0.0815 | 0.0642 | 0.11 | 0.107 | 0.0776 | 0.0818 | 0.0722 | 0.494 | 0.228 | 0.188 | 0.166 | 0.135
NCI-H441 | 0.808 | 0.552 | 0.269 | 0.204 | 0.176 | 0.583 | 0.28 | 0.247 | 0.165 | 0.201 | 0.46 | 0.318 | 0.196 | 0.131 | 0.132 | 0.82 | 0.286 | 0.167 | 0.121 | 0.129
NCI-H460 | 0.589 | 0.565 | 0.0724 | 0.0156 | 0.0098 | 0.838 | 0.76 | 0.26 | 0.0217 | 0.0185 | 0.105 | 0.211 | 0.0498 | 0.0169 | 0.0076 | 1.12 | 0.894 | 0.528 | 0.0182 | 0.0089
NCI-H520 | 0.536 | 0.554 | 0.225 | 0.163 | 0.154 | 0.306 | 0.296 | 0.254 | 0.189 | 0.156 | 0.848 | 0.752 | 0.159 | 0.143 | 0.144 | 0.915 | 0.769 | 0.465 | 0.156 | 0.108
NCI-H596 | 0.74 | 0.612 | 0.489 | 0.262 | 0.306 | 0.659 | 0.604 | 0.392 | 0.232 | 0.193 | 0.918 | 0.593 | 0.392 | 0.336 | 0.321 | 1.04 | 1.02 | 0.531 | 0.391 | 0.345
NCI-H647 | 0.334 | 0.144 | 0.058 | 0.0604 | 0.0397 | 0.408 | 0.128 | 0.0727 | 0.0897 | 0.0704 | 0.404 | 0.286 | 0.117 | 0.0909 | 0.0535 | 1.09 | 0.195 | 0.0721 | 0.0642 | 0.0615
NCI-H650 | 0.387 | 0.255 | 0.202 | 0.158 | 0.168 | 0.46 | 0.24 | 0.194 | 0.153 | 0.169 | 0.809 | 0.469 | 0.126 | 0.141 | 0.129 | 0.578 | 0.322 | 0.176 | 0.177 | 0.167
NCI-H661 | 0.282 | 0.263 | 0.231 | 0.197 | 0.226 | 0.767 | 0.597 | 0.374 | 0.204 | 0.208 | 0.568 | 0.606 | 0.464 | 0.281 | 0.223 | 1.09 | 0.983 | 0.856 | 0.333 | 0.285
NCI-H727 | 0.46 | 0.448 | 0.348 | 0.419 | 0.322 | 0.586 | 0.409 | 0.353 | 0.327 | 0.297 | 0.447 | 0.355 | 0.33 | 0.327 | 0.328 | 0.771 | 0.32 | 0.243 | 0.266 | 0.219
NCI-H838 | 0.634 | 0.675 | 0.521 | 0.19 | 0.0985 | 0.367 | 0.441 | 0.3 | 0.245 | 0.124 | 0.51 | 0.621 | 0.561 | 0.274 | 0.127 | 0.912 | 0.981 | 0.858 | 0.324 | 0.139
NCI-H1355 | 0.444 | 0.297 | 0.214 | 0.202 | 0.178 | 0.362 | 0.28 | 0.159 | 0.178 | 0.173 | 0.426 | 0.363 | 0.245 | 0.189 | 0.154 | 0.996 | 0.706 | 0.193 | 0.158 | 0.141
NCI-H1437 | 0.313 | 0.213 | 0.193 | 0.17 | 0.112 | 0.822 | 0.734 | 0.452 | 0.297 | 0.181 | 0.523 | 0.611 | 0.384 | 0.241 | 0.164 | 1.07 | 0.863 | 0.617 | 0.162 | 0.121
NCI-H1650 | 0.437 | 0.202 | 0.154 | 0.129 | 0.121 | 0.501 | 0.184 | 0.114 | 0.137 | 0.134 | 0.556 | 0.337 | 0.208 | 0.174 | 0.137 | 0.974 | 0.875 | 0.638 | 0.158 | 0.145
NCI-H1651 | 0.392 | 0.359 | 0.335 | 0.151 | 0.155 | 0.607 | 0.75 | 0.557 | 0.248 | 0.117 | 0.828 | 0.813 | 0.826 | 0.185 | 0.114 | 0.913 | 0.855 | 0.85 | 0.346 | 0.138
NCI-H1666 | 0.559 | 0.476 | 0.383 | 0.378 | 0.355 | 0.87 | 0.821 | 0.752 | 0.5 | 0.479 | 0.795 | 0.946 | 0.773 | 0.655 | 0.554 | 0.959 | 1.16 | 0.596 | 0.321 | 0.268
